These results are taken from patent US20190055279A1, “NOVEL POLYPEPTIDES WITH IMPROVED PROTEOLYTIC STABILITY, AND METHODS OF PREPARING AND USING SAME” (TUFTS UNIVERSITY, priority 2015, published 2019).

For series [1] the following is noted: cited from earlier work.
In another series the target is DPP4 (Homo sapiens, UniProt P27487). The series is described as follows: DPP4 degradation of GLP-2 peptides: incubation with recombinant DPP4, then GLP-2R reporter assay. On the technique in general: In a reporter assay the amount or activity of a reporter protein is the signal.
In the next series the target is DPP2 (Homo sapiens, UniProt Q9UHL4). As to the kind of experiment: Stability assay with or without DPP2, read out by receptor bioassay (FIG. 9A). The conditions noted are these: incubated with or without DPP2.
A further series has as its target T1, FAP (Homo sapiens, UniProt Q12884).
T1 sequence (Q12884 1-760): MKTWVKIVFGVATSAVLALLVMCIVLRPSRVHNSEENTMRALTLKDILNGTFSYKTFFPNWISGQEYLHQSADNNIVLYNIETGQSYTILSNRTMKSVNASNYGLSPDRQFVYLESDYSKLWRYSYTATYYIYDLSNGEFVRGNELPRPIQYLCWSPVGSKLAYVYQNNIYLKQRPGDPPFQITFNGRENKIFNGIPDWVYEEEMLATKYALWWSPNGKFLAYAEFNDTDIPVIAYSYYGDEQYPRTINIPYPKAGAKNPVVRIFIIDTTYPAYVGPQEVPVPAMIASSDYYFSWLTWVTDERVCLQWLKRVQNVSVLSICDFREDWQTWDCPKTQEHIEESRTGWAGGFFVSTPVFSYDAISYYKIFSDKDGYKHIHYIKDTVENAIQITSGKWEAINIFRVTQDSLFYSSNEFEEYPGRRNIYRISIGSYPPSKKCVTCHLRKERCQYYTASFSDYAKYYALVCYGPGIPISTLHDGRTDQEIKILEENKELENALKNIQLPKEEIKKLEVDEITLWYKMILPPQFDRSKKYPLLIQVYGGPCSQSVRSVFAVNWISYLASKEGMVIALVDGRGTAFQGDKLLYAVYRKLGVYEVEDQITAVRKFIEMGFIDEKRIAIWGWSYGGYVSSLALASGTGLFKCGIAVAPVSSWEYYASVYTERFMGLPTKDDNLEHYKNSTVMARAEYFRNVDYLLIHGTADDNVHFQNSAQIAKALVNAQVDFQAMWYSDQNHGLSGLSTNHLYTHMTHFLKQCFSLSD
The series is described as follows: Stability assay with or without FAP, read out by receptor bioassay (FIG. 9A, FIG. 18). The conditions noted are these: incubated with or without FAP.

Several values for one entry are separate records, joined by “and”; a condition that tells them apart may be missing. Identical values can stand only once. A value given as a limit tells only on which side of the number the result lay.

Chain of DPP4 (P27487 whole entry, species assumed): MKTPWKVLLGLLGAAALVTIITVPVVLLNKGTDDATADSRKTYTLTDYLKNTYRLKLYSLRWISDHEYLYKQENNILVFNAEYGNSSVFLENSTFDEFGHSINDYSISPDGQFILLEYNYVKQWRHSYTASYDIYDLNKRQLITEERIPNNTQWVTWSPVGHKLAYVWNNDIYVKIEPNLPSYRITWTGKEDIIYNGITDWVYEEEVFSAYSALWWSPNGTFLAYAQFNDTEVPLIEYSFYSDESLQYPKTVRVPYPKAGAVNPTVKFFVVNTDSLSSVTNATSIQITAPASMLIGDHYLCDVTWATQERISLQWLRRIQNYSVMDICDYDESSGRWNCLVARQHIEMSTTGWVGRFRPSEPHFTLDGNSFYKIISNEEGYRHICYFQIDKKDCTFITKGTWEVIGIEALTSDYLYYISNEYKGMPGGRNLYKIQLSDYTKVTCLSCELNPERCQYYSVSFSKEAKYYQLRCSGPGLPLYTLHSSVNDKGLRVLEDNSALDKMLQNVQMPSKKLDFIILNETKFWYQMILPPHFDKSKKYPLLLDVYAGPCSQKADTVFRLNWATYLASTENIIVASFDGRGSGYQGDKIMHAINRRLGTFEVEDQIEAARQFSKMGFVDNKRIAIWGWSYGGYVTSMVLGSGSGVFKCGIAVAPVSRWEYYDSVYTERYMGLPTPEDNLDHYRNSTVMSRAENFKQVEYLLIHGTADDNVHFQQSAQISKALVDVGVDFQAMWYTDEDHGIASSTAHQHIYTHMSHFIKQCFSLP
Procedure for DPP4: Peptides were incubated with vehicle or recombinant DPP4. Serial dilutions of GLP2-1 and GLP2-4 were then applied to HEK293 cells, which had been transfected with cDNA encoding human GLP-2R and a cAMP-responsive reporter gene.
Peptides were incubated with recombinant DPP4. Serial dilutions of GLP-2 and GLP2-4 were then applied to HEK293 cells, which had been transfected with cDNA encoding human GLP-2R and a cAMP-responsive reporter gene. […] N=4, mean+SEM.
DPP4 resistance (FIG. 13): Lipidated peptides are compared with the prototype, F-GLP2-palm. After an overnight incubation (16 hrs) in the presence vs. the absence of DPP4, receptor mediated function is assessed as shown elsewhere herein. As a DPP4 susceptible control, parallel experiments are done using GLP-2. […] Following overnight preincubation, serial dilutions of ligands were prepared and added to GLP-2R expressing cells for 4 hours. A luciferase reporter gene assay was used to monitor Gαs coupled second messenger signaling.

`CC[C@H](C)[C@H](NC(=O)[C@H](Cc1ccccc1)NC(=O)[C@H](CC(=O)O)NC(=O)[C@H](CCCN=C(N)N)NC(=O)[C@H](C)NC(=O)[C@H](C)NC(=O)[C@H](CC(C)C)NC(=O)[C@H](CC(N)=O)NC(=O)[C@H](CC(=O)O)NC(=O)[C@H](CC(C)C)NC(=O)[C@@H](NC(=O)[C@@H](NC(=O)[C@H](CC(N)=O)NC(=O)[C@H](CCSC)NC(=O)[C@H](CCC(=O)O)NC(=O)[C@H](CC(=O)O)NC(=O)[C@H](CO)NC(=O)[C@H](Cc1ccccc1)NC(=O)[C@H](CO)NC(=O)CNC(=O)[C@H](CC(=O)O)NC(=O)[C@H](C)NC(=O)[C@@H](N)Cc1cnc[nH]1)[C@@H](C)O)[C@@H](C)CC)C(=O)N[C@@H](CC(N)=O)C(=O)N[C@@H](Cc1c[nH]c2ccccc12)C(=O)N[C@@H](CC(C)C)C(=O)N[C@H](C(=O)N[C@@H](CCC(N)=O)C(=O)N[C@H](C(=O)N[C@@H](CCCCN)C(=O)N[C@H](C(=O)N[C@H](C(=O)N[C@@H](CC(=O)O)C(=O)O)[C@@H](C)O)[C@@H](C)CC)[C@@H](C)O)[C@@H](C)CC` [GLP-2, glucagon-like peptide-2, reference compound]: the half-life in vivo in series [1] is 7 min. The “DPP4 degradation / resistance (in words)” value at DPP4 (GLP-2R readout) is “degraded by DPP4”. Also, on DPP4 (GLP-2R readout, N=4), the “loss in potency induced by DPP4” value is recorded as more than 40 fold. Further, the “peptide degraded by DPP4” value on DPP4 (inferred from potency loss) is > 97% and ~97%.
For `CC[C@H](C)[C@H](NC(=O)[C@H](Cc1ccccc1)NC(=O)[C@H](CCC(=O)O)NC(=O)[C@H](CCCCN)NC(=O)[C@H](C)NC(=O)[C@H](C)NC(=O)[C@H](CCC(N)=O)NC(=O)CNC(=O)[C@H](CCC(=O)O)NC(=O)[C@H](CC(C)C)NC(=O)[C@H](Cc1ccc(O)cc1)NC(=O)[C@H](CO)NC(=O)[C@H](CO)NC(=O)[C@@H](NC(=O)[C@H](CC(=O)O)NC(=O)[C@H](CO)NC(=O)[C@@H](NC(=O)[C@H](Cc1ccccc1)NC(=O)[C@@H](NC(=O)CNC(=O)[C@H](CCC(=O)O)NC(=O)[C@H](C)NC(=O)[C@@H](N)Cc1c[nH]cn1)[C@@H](C)O)[C@@H](C)O)C(C)C)C(=O)N[C@@H](C)C(=O)N[C@@H](Cc1c[nH]c2ccccc12)C(=O)N[C@@H](CC(C)C)C(=O)N[C@H](C(=O)N[C@@H](CCCCN)C(=O)NCC(=O)N[C@@H](CCCNC(=N)N)C(N)=O)C(C)C` [GLP-1, glucagon-like peptide-1, reference compound], at DPP2, the “stability to DPP2 (in words)” value is given as “major potency losses”. Moreover, the “stability to FAP (in words)” value at FAP is “major potency losses”.
